The text below walks through data of ChEMBL document CHEMBL1909046, “DrugMatrix in vitro pharmacology data”.

*1 amine or outer side, *2 acyl side, *3 side chain or, on linkers, in order; H or OH if unused. Where a SMILES comes first, the peptide text is derived from it. Bridges are numbered along the chain shown (N, C = ends). Roman numbers before positions name the chains, in order. [ ]: non-standard residue; d: D form. Actinocin(1to9) = Cc1c2oc3c(C)ccc(C(=O)[*:2])c3nc-2c(C(=O)[*:1])c(N)c1=O; NMeV = CN[C@H](C(=O)O)C(C)C; Sar = CNCC(=O)O

Data set [1] can be described thus: DRUGMATRIX: Tumor Necrosis Factor (TNF), Non-Selective radioligand binding (ligand: [125I] TNF-alpha). The class given is cell membranes, Membrane. The following applies: u-937; Not Active = under 50% inhibition at 10 µM.
In data set [2] the target is Vascular endothelial growth factor receptor 1 (Homo sapiens, UniProt P17948). Format: cell-based. As to conditions: huvec. Also: in other assays of this panel Not Active means under 50% inhibition at 10 µM.
Chain of Vascular endothelial growth factor receptor 1 (P17948 whole entry): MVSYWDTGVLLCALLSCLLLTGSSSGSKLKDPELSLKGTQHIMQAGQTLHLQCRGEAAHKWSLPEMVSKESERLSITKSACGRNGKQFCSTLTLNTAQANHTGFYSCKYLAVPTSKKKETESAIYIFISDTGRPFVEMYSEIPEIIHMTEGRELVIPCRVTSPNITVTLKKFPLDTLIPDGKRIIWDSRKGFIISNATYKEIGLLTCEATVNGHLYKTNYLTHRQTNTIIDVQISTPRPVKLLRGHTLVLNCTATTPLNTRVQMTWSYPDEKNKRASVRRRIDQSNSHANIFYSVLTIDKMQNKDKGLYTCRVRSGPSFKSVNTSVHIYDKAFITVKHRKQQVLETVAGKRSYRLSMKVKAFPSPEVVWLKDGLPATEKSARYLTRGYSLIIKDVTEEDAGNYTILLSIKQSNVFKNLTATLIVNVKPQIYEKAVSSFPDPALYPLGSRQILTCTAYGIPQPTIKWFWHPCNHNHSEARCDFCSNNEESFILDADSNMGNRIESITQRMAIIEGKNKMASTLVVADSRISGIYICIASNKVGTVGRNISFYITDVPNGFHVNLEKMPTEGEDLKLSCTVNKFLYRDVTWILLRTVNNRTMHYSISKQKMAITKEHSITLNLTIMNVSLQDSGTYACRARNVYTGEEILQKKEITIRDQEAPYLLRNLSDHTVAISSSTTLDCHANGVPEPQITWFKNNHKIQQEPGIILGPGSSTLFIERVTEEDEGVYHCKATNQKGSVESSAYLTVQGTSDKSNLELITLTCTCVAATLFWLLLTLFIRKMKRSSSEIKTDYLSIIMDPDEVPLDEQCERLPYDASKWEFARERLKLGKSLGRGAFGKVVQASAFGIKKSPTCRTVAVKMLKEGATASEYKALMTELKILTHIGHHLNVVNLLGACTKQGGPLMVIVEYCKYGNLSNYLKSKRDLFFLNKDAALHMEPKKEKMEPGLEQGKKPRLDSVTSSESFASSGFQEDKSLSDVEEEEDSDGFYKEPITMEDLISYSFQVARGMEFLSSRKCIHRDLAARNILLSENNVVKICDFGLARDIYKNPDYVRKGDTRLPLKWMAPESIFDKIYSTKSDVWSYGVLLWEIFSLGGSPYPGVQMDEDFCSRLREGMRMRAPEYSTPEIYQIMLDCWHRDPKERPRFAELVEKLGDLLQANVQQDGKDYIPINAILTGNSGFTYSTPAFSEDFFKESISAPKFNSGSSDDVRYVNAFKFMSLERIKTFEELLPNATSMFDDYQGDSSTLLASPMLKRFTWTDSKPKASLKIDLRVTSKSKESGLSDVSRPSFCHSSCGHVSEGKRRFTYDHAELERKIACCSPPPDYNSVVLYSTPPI
For data set [3], the target named is D(3) dopamine receptor (Homo sapiens, UniProt P35462). Nature of the data set: DRUGMATRIX: Dopamine D3 radioligand binding (ligand: [3H] Spiperone). Format: cell membranes, CHO, Membrane. As to conditions: cho.
Chain of D(3) dopamine receptor (P35462 whole entry): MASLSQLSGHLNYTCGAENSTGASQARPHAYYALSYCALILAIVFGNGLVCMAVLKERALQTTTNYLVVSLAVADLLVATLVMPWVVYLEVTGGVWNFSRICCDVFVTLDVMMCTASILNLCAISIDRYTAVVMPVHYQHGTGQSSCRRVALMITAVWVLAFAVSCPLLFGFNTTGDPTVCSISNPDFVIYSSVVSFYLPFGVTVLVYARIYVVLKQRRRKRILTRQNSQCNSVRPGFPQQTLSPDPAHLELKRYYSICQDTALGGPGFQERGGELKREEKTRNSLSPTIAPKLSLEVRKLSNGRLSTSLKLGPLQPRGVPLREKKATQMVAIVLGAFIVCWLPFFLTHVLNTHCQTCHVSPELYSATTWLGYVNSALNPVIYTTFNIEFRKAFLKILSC
The target of data set [4] is Insulin receptor (Rattus norvegicus, UniProt P15127). Format: cell membranes, Wistar, Liver, Membrane. Also: in other assays of this panel Not Active means under 50% inhibition at 10 µM.
Chain of Insulin receptor (P15127 27-759 limits assumed): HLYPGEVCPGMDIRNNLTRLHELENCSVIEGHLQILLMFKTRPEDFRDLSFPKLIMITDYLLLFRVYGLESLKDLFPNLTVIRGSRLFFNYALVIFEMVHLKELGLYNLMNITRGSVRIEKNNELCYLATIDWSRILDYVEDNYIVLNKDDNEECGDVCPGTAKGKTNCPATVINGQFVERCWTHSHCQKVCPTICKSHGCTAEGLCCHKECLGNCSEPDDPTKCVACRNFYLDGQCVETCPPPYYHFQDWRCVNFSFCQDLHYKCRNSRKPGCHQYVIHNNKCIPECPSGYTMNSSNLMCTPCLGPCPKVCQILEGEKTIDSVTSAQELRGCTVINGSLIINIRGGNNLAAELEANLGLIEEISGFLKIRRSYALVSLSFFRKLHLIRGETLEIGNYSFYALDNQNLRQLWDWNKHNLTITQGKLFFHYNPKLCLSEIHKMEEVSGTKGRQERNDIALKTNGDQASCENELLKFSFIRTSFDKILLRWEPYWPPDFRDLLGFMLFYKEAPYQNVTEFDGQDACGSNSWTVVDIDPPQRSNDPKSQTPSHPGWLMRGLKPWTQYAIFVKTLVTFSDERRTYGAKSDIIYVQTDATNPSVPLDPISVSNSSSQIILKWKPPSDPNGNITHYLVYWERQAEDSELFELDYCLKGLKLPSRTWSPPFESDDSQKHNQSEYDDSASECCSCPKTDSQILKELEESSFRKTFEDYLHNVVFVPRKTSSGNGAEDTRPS
Chain of Insulin receptor (P15127 764-1383 limits assumed): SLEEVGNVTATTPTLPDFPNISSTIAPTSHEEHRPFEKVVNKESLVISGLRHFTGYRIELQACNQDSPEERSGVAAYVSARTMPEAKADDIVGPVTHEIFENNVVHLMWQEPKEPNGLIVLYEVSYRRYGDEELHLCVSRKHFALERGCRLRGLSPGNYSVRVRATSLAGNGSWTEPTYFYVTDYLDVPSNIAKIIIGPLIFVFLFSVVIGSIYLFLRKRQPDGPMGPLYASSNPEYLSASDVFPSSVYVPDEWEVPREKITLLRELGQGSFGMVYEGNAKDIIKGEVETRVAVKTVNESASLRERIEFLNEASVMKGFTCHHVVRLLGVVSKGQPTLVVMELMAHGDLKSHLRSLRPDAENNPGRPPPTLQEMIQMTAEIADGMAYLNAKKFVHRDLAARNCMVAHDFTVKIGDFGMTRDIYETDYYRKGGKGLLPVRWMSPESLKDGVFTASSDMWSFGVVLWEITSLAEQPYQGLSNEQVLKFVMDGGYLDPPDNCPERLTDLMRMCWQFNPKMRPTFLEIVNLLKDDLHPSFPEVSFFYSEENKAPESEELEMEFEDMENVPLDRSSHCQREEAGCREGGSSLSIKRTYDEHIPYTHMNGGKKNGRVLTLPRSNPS
For data set [5], the target named is Melanocortin receptor 5 (Homo sapiens, UniProt P33032). The class given is cell membranes, HEK293, Membrane. Also: in other assays of this panel Not Active means under 50% inhibition at 10 µM.
Chain of Melanocortin receptor 5 (P33032 whole entry): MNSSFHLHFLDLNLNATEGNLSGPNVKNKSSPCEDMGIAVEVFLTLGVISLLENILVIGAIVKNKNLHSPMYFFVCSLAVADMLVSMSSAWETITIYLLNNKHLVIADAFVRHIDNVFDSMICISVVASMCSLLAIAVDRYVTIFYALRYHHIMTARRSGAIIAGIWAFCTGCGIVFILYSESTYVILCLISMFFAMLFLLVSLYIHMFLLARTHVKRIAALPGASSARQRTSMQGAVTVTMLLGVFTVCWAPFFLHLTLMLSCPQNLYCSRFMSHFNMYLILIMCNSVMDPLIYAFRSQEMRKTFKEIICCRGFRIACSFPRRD
The nature of data set [6]: DRUGMATRIX: Potassium Channel [KATP] radioligand binding (ligand: [3H] Glyburide). Format: cell membranes, Membrane. As to conditions: hit-t15; Not Active = under 50% inhibition at 10 µM.
For data set [7], the target named is Mitogen-activated protein kinase 3 (Homo sapiens, UniProt P27361). Nature of the data set: DRUGMATRIX: Protein Serine/Threonine Kinase, ERK1 enzyme inhibition (substrate: Myelin Basic Protein). As to conditions: Not Active = under 50% inhibition at 10 µM. Details: species or system Escherichia coli.
Chain of Mitogen-activated protein kinase 3 (P27361 whole entry): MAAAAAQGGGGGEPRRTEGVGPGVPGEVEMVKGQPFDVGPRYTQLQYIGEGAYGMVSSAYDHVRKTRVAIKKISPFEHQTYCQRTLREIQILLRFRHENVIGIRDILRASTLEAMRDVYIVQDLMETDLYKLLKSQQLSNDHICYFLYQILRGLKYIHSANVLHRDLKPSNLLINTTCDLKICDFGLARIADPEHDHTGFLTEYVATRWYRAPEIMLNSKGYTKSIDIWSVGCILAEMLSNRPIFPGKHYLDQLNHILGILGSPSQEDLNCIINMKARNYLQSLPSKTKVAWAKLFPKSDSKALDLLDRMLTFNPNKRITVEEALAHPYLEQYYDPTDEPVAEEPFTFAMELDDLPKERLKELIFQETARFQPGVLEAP
Data set [8] has as its target T1, Cytochrome P450 2A6 (Homo sapiens, UniProt P11509). Also: in other assays of this panel Not Active means under 50% inhibition at 10 µM.
T1 sequence (P11509 whole entry): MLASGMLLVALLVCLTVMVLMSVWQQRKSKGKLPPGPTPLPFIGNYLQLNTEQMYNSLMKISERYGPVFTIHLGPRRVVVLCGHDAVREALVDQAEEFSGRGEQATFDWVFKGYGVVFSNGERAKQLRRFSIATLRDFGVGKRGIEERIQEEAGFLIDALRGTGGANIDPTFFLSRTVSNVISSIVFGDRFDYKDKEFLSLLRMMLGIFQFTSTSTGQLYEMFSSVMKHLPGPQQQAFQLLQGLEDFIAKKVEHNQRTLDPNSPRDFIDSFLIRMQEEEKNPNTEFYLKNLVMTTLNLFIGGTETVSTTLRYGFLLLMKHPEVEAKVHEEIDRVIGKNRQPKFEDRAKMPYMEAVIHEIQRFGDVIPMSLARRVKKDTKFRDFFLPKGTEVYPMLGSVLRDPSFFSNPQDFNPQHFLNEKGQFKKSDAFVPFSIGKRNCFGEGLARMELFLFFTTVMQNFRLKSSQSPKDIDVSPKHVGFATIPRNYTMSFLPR
The following applies: bti-tn-5b1-4.

By IC50 is commonly meant the concentration that inhibits the measured activity by half. Broadly, the Ki is a measure of affinity in units of concentration, obtained from inhibition or displacement.

As for `COc1ccc(C[C@H]2NC[C@H](O)[C@H]2OC(C)=O)cc1` [ANISOMYCIN], the IC50 result in data set [1], in data set [2], in data set [3], in data set [4], in data set [5] (hek293) and in data set [6] was “Not Active” in each case. Further, the IC50 entry in data set [7] and in data set [8] was “Not Active” throughout. Besides, the Ki entry in data set [1], in data set [2], in data set [3], in data set [4], in data set [5] (hek293) and in data set [6] was “Not Active” in each case. The inhibition constant Ki entry in data set [7] and in data set [8] was “Not Active” each time.
Take `CNNCc1ccc(C(=O)NC(C)C)cc1` [PROCARBAZINE]: the IC50 entry in data set [1], in data set [2], in data set [3], in data set [4], in data set [5] (hek293) and in data set [6] was “Not Active” throughout. Besides, the IC50 result in data set [7] and in data set [8] was “Not Active” each time. Further, the Ki entry in data set [1], in data set [6] and in data set [8] was “Not Active” in each case.
With `Cc1onc(O)c1CC(N)C(=O)O` (racemic) [(R,S)-AMPA], the IC50 entry in data set [1], in data set [2], in data set [3], in data set [4], in data set [5] (hek293) and in data set [6] was “Not Active” in each case. The IC50 result in data set [7] and in data set [8] was “Not Active” each time. Further, the Ki entry in data set [1], in data set [6] and in data set [8] was “Not Active” throughout.
For `Cc1c(O)c(=O)ccn1C` [DEFERIPRONE], the IC50 result in data set [1], in data set [2], in data set [3], in data set [4], in data set [5] (hek293) and in data set [6] was “Not Active” each time. The IC50 entry in data set [7] and in data set [8] was “Not Active” throughout. In addition, the Ki result in data set [1], in data set [6] and in data set [8] was “Not Active” in each case.
As to `Nc1ncn([C@@H]2O[C@H](CO)[C@@H](O)[C@H]2O)c(=O)n1` [AZACITIDINE], the IC50 entry in data set [1], in data set [2], in data set [3], in data set [4], in data set [5] (hek293) and in data set [6] was “Not Active” in each case. For the same molecule, the IC50 entry in data set [7] and in data set [8] was “Not Active” each time. Further, the Ki result in data set [1], in data set [6] and in data set [8] was “Not Active” each time.
Consider `CCn1cc(C(=O)O)c(=O)c2cc(F)c(N3CCNCC3)cc21` [NORFLOXACIN], for which the IC50 entry in data set [1], in data set [2], in data set [3], in data set [4], in data set [5] (hek293) and in data set [6] was “Not Active” each time. The half-inhibitory concentration (IC50) entry in data set [7] and in data set [8] was “Not Active” each time. The Ki entry in data set [1], in data set [6] and in data set [8] was “Not Active” in each case.
Consider `CN(C)CCCN1c2ccccc2Sc2ccc(Cl)cc21` [CHLORPROMAZINE], for which the IC50 result was “Not Active” in data set [1]; “Not Active” in data set [2]; “Not Active” in data set [4]; 7.62 µM in data set [5] (read-out: IC50); “Not Active” in data set [6]; “Not Active” in data set [7]. In addition, in data set [8], the half-inhibitory concentration (IC50) result was “Not Active”. Also, the Ki entry is “Not Active” in data set [1], 7.15 µM in data set [5] (read-out: Ki), “Not Active” in data set [6] and “Not Active” in data set [8].
As for `CCOC(=O)C1=C(COCCN)NC(C)=C(C(=O)OC)C1c1ccccc1Cl` (stereo unspecified) [AMLODIPINE], the half-inhibitory concentration (IC50) result in data set [1], in data set [2], in data set [3], in data set [4], in data set [5] (hek293) and in data set [6] was “Not Active” in each case. The IC50 entry in data set [7] and in data set [8] was “Not Active” in each case. The Ki result in data set [1], in data set [6] and in data set [8] was “Not Active” each time.
For the molecule `CC1Cc2ccccc2N1NC(=O)c1ccc(Cl)c(S(N)(=O)=O)c1` (stereo unspecified) [INDAPAMIDE], the IC50 entry in data set [1], in data set [2], in data set [3], in data set [4], in data set [5] (hek293) and in data set [6] was “Not Active” in each case. In addition, the concentration for half-maximal inhibition (IC50) result in data set [7] and in data set [8] was “Not Active” each time. For the same molecule, the Ki entry in data set [1], in data set [6] and in data set [8] was “Not Active” throughout.
For the molecule LEAD (II) ACETATE, the half-inhibitory concentration (IC50) entry in data set [1], in data set [2], in data set [3], in data set [4], in data set [5] (hek293) and in data set [6] was “Not Active” throughout. Further, the IC50 entry in data set [7] and in data set [8] was “Not Active” each time. The Ki entry in data set [1], in data set [2], in data set [3], in data set [4], in data set [5] (hek293) and in data set [6] was “Not Active” in each case. Moreover, the Ki entry in data set [7] and in data set [8] was “Not Active” throughout.
Turning to `Cc1c2oc3c(C)ccc(C(=O)N[C@@H]4C(=O)N[C@H](C(C)C)C(=O)N5CCC[C@H]5C(=O)N(C)CC(=O)N(C)[C@@H](C(C)C)C(=O)O[C@@H]4C)c3nc-2c(C(=O)N[C@@H]2C(=O)N[C@H](C(C)C)C(=O)N3CCC[C@H]3C(=O)N(C)CC(=O)N(C)[C@@H](C(C)C)C(=O)O[C@@H]2C)c(N)c1=O` [DACTINOMYCIN] (I: T[dV]P[Sar][NMeV] / II: T[dV]P[Sar][NMeV]; ester I:1-I:C, II:1-II:C; linker I:N-II:N via Actinocin(1to9)), the half-inhibitory concentration (IC50) entry in data set [1], in data set [2], in data set [3], in data set [4], in data set [5] (hek293) and in data set [6] was “Not Active” each time. In addition, the IC50 result in data set [7] and in data set [8] was “Not Active” each time. Further, the Ki entry in data set [1], in data set [6] and in data set [8] was “Not Active” each time.
For the molecule `CCCN1C[C@H](CSC)C[C@@H]2c3cccc4[nH]cc(c34)C[C@H]21` [PERGOLIDE], the IC50 result in data set [1], in data set [2], in data set [4], in data set [5] (hek293), in data set [6] and in data set [7] was “Not Active” in each case. The IC50 entry in data set [8] is reported as “Not Active”. The Ki result in data set [1], in data set [6] and in data set [8] was “Not Active” in each case.
On to `Nc1c(Br)cc(Br)cc1CN[C@H]1CC[C@H](O)CC1` [AMBROXOL], for which the IC50 result in data set [1], in data set [2], in data set [3], in data set [4], in data set [5] (hek293) and in data set [6] was “Not Active” in each case. Moreover, in data set [7], the IC50 result is listed as “Not Active”. The Ki result in data set [1] and in data set [6] was “Not Active” throughout.
For the molecule `C[C@]12CC[C@@H]3c4ccc(O)cc4CC[C@H]3[C@@H]1CCC2=O` [ESTRONE], the IC50 result in data set [1], in data set [2], in data set [3], in data set [4], in data set [5] (hek293) and in data set [6] was “Not Active” each time. In addition, the IC50 entry in data set [7] was “Not Active”. Further, the Ki entry in data set [1] and in data set [6] was “Not Active” throughout.
In the case of `CC1(C)S[C@@H]2[C@H](NC(=O)Cc3ccccc3)C(=O)N2[C@H]1C(=O)O` [PENICILLIN G], the IC50 entry in data set [1], in data set [2], in data set [3], in data set [4], in data set [5] (hek293) and in data set [6] was “Not Active” in each case. Moreover, the 50% inhibitory concentration (IC50) result in data set [7] is reported as “Not Active”. The Ki entry in data set [1] and in data set [6] was “Not Active” throughout.
`CN(C)c1nc(N(C)C)nc(N(C)C)n1` [ALTRETAMINE]: the IC50 result in data set [1], in data set [2], in data set [3], in data set [4], in data set [5] (hek293) and in data set [6] was “Not Active” in each case. Moreover, the IC50 result in data set [7] is “Not Active”. Moreover, the Ki result in data set [1] and in data set [6] was “Not Active” in each case.
As to `N=C(N)NCCN1CCCCCCC1` [GUANETHIDINE], the IC50 result in data set [1], in data set [2], in data set [3], in data set [4], in data set [5] (hek293) and in data set [6] was “Not Active” each time. Further, in data set [7], the IC50 result is recorded as “Not Active”. For the same molecule, the Ki result in data set [1] and in data set [6] was “Not Active” in each case.
